In publication PMC5539802 (2014):

Experiments:
[1] = tested on: PS2.M (DNA, G4) GTGGGTAGGGCGGGTTGG; experiment: luminescence enhancement; conditions: 100 mM K+ (annealing); 1 μM complex, 5 μM DNA; 20 mM Tris-HCl pH 7.0
[2] = tested on: F21T (DNA, G4) GGGTTAGGGTTAGGGTTAGGG; experiment: FRET melting; conditions: 100 mM K+; potassium cacodylate pH 7.0; 200 nM DNA; complex concentration not in material
[3] = tested on: F10T (DNA, hairpin, hexaethylene glycol (HEG) linker between nucleotides 8 and 9) TATAGCTATATAGCTATAT; experiment: FRET melting; conditions: 10 mM Li+; lithium cacodylate pH 7.4; same complex concentration as F21T
[4] = tested on: ON1 (DNA, G4) GTGGGTAGGGCGGGTTGGTGGCGACGGCAGCGAGGCAGAGGAGCAGAGGGAGCA; experiment: luminescence enhancement; conditions: 20 mM K+, 150 mM NH4+; 20 mM Tris pH 7.2; 1 μM complex; G-quadruplex released by helicase unwinding of ON1-ON2
[5] = tested on: ON1-ON2 duplex substrate (DNA, duplex) GTGGGTAGGGCGGGTTGGTGGCGACGGCAGCGAGGCAGAGGAGCAGAGGGAGCA/GCCTCGCTGCCGTCGCCACCAACCCGCCC; experiment: luminescence enhancement; conditions: 20 mM K+, 150 mM NH4+; 20 mM Tris pH 7.2; 1 μM complex; duplex without helicase unwinding
[6] = tested on: ds17 (DNA, duplex) CCAGTTCGTAGTAACCC/GGGTTACTACGAACTGG; experiment: G4-FID thiazole orange displacement; conditions: Tris-HCl buffer; thiazole orange 0.5 μM displaced; less effective than for Pu27

Row | SMILES | binding [1] | ΔTm [2] | ΔTm [3] [°C] | binding [4] | binding [5] | binding [6]
1 | Clc1cc2cccnc2c2ncccc12.[Ir+3].[c-]1ccccc1-c1ccc2ccccc2n1.[c-]1ccccc1-c1ccc2ccccc2n1 | yes |  |  |  |  | 
2 | [Ir+3].[c-]1ccccc1-c1ccc2ccccc2n1.[c-]1ccccc1-c1ccc2ccccc2n1.c1cnc2c(c1)ccc1cccnc12 | yes | ~ 13 °C | 4 | yes | weak | weak
